Measured values as given in patent US20160122758A1, “AGENTS FOR DOWNREGULATION OF THE ACTIVITY AND/OR AMOUNT OF BCL-XL AND/OR BCL-W” (YEDA RESEARCH AND DEVELOPMENT CO. LTD., priority 2013, published 2016).
Residues, ends and D or L forms follow the SMILES beside them. *: point of attachment. Cbz = O=C(OCc1ccccc1)*; CH2F = FC*

Experiments:
[1] = tested on: Etoposide treated senescent IMR-90 cells; assay: Viability assay after siRNA transfection of Etoposide treated senescent IMR-90 cells; assay type: cell-based, human; settings: 10 μM ABT-199 for 24 hours, three days post siRNA transfection
Method: (§1) Human primary fibroblasts (IMR-90, BJ) were obtained from ATCC MEFs were prepared from day 13.5 embryos. All cultures were maintained in DMEM supplemented with 10% fetal bovine serum (Hyclone). Senescence was induced by treatment with Etoposide ([…], Sigma), or the introduction of oncogenic H-ras^v12 using infections into IMR-90 cells (as described by Narita, 2003).
(§2) Growing and senescent cells were plated in 12-well plates at 7.5×10^4 cells per well. The following day, cells were treated with DMSO control, ABT-737 (Selleckchem, USA) or ABT-199 (ChemieTek, USA) and cell viability was analyzed 24 hours thereafter. 300 μl of PrestoBlue Reagent (Invitrogen, USA) were added to each well, and plates were incubated for 20 minutes at 37 C. 100 μl samples were taken in duplicates to a 96 well plate and read at an OD of 540 nm using a Tecan plate reader (Infinite® M200). A three-hour pre incubation with 100 μM z-VAD-fmk (Santa Cruz, USA) was performed prior to the addition of ABT-737 where indicated.
ON-TARGETplus SMARTpool small-interfering RNAs targeting p21, Bcl-2, Bcl-w, Bcl-xL and the nontargeting pool siRNAs (control) were transfected into cells with the Dharmafect 1 reagent (all from Dharmacon, Lafayette, Colo., USA). siRNAs were washed away 24 hours post transfection and viability was analyzed four days thereafter as described above.

[2] = tested on: senescent IMR-90 or MEF cells; assay: Viability assay, ABT-199 alone on senescent IMR-90 or MEF cells; assay type: cell-based, human, mouse; settings: ABT-199 for 24 hours
Method: as §1, §2

[3] = tested on: senescent human (IMR-90) and mouse (MEF) fibroblasts; assay: Viability assay, ABT-737 on senescent and control IMR-90 and MEF fibroblasts; assay type: cell-based; settings: ABT-737 for 24 hours
Method: as §1, §2
To further test the hypothesis that an increase in the levels of anti-apoptotic proteins Bcl-w and Bcl-xL could account for the apoptotic resistance of senescent cells by an independent approach, cells were treated with the pharmacological inhibitor of the Bcl-2 family of proteins, ABT-737 (Chauhan et al., 2007). […]

senescent IMR-90 cells = assay: Viability assay, ABT-737 with or without z-VAD-fmk on IMR-90 cells; assay type: cell-based, human
Method: as §1, §2
Members of the Bcl-2 family negatively regulate apoptotic pathway (Azmi et al., 2011; Cory et al., 2003; Reed, 2008). To determine whether ABT-737 kills senescent cells via the apoptotic pathway, DNA damage induced senescent IMR-90 cells, oncogenic H-Ras^v12 induced senescent cells and control growing cells were treated with ABT-737 alone or in combination with pan-caspase inhibitor z-VAD-fmk. […]

cleaved caspase-3 = assay: Immunoblot for cleaved caspase-3 in IMR-90 cells treated with ABT-737 with or without z-VAD-fmk; assay type: cell-based, human
Method: Cells were lysed in RIPA buffer. Equal amounts of protein were separated on 12% SDS-polyacrylamide gels and transferred to PVDF membranes. Detection was performed using the following antibodies: anti-Rb (9313), anti-cleaved parp (9541), anti-cleaved caspase-3 (9661), anti-phospho-p53 (9284), anti-mouse-p53 (2524), anti-phospho-NF-κB (3033), anti-Bcl-2 (2870), anti-Bcl-w (2724) and anti-Bcl-xL (2764) were purchased from Cell Signaling Technology. Anti-human p53 (DO1 and PAb1801). Anti-p16 (sc-759), anti-mouse-p21 (sc-397), anti-NFκB p65 (sc-372) and anti-α-Tubulin (sc-9104) were obtained from Santa Cruz Biotechnology. Anti-human-p21 (556431) was obtained from BD Pharmingen, Anti-Mcl-1 (1239-1) was obtained from Epitomics.
as §2, with “indicated. […]” for “indicated.”

[4] = tested on: Etoposide treated BJ cells; assay: Viability assay after siRNA transfection, senescent BJ cells; assay type: cell-based, human; settings: Etoposide treated BJ cells with sip21; z-VAD-fmk four days with daily replenishment
Method: as §1, §2
ON-TARGETplus SMARTpool small-interfering RNAs targeting p21, Bcl-2, Bcl-w, Bcl-xL and the nontargeting pool siRNAs (control) were transfected into cells with the Dharmafect 1 reagent (all from Dharmacon, Lafayette, Colo., USA). siRNAs were washed away 24 hours post transfection and viability was analyzed four days thereafter as described above. […]

CC1(C)CCC(CN2CCN(c3ccc(C(=O)NS(=O)(=O)c4ccc(NCC5CCOCC5)c([N+](=O)[O-])c4)c(Oc4cnc5[nH]ccc5c4)c3)CC2)=C(c2ccc(Cl)cc2)C1 [ABT-199]
additive effect of Bcl-2 inhibition on top of Bcl-w and Bcl-xL knockdown on senescent cell viability [1]: statistically significant, but minor additive effect | effect on viability of oncogenic H-ras^v12 induced senescent IMR-90 cells [2]: minor decrease in cell viability | effect on viability of senescent cells, Bcl-2 inhibition alone ([2]; IMR-90 or MEF senescent cells): almost no effect

CN(C)CC[C@H](CSc1ccccc1)Nc1ccc(S(=O)(=O)NC(=O)c2ccc(N3CCN(Cc4ccccc4-c4ccc(Cl)cc4)CC3)cc2)cc1[N+](=O)[O-] [ABT-737]
reduction of viability of senescent cells ([3]; Etoposide or H-Ras^V12 induced senescent IMR-90 and MEF): 50% | effect on viability of control cells ([3]; growing, vehicle treated or vector transduced cells): minor effect | death of senescent cells (senescent IMR-90 cells; ABT-737 alone, 24 hours, DNA damage or H-Ras^v12 induced senescent IMR-90): induced death | caspase-3 cleavage (cleaved caspase-3; senescent IMR-90 cells treated with ABT-737): caspase-3 cleavage

COC(=O)C[C@H](NC(=O)[C@H](C)NC(=O)[C@@H](NC(=O)OCc1ccccc1)C(C)C)C(=O)CF [z-VAD-fmk] (Cbz-Val-Ala-Asp(OMe)-CH2F)
death of senescent cells following ABT-737 treatment, in presence of pan-caspase inhibitor (senescent IMR-90 cells; 100 μM z-VAD-fmk three-hour pre incubation, then ABT-737): prevented death | caspase-3 cleavage after addition of z-VAD-fmk to ABT-737 (cleaved caspase-3; senescent IMR-90 cells, ABT-737 plus z-VAD-fmk): abolished this cleavage | rescue of cell death caused by p21 knockdown [4]: 20%
